Experiments:
menstrual cycle = conditions: RU-486 given late in the follicular phase; cited from earlier work
[1] = RU-486 and emetine composition pharmacokinetics study (RU-486 blood concentrations by HPLC); format: in vivo; conditions: human, plasma, po, one tablet (10 mg RU-486) orally, eight subjects per group
Experimental: Experiment 4: RU-486 and Emetine Composition Pharmacokinetics Studies
The studies were carried out with two test groups in parallel. The first group used the composite tablets according to preparation I described below (10 mg RU-486 and 8.4 mg emetine). The control group used tablets containing only 10 mg RU-486. The two types of tablets were similarly prepared, and they had the same appearance. A total of sixteen test subjects were involved, eight in each group. Each test subject was given one pill and blood samples were collected at 0, 0.33, 0.5, 0.75, 1, 1.5, 2, 3, 4, 6, 8, 12, 24, 48, 72, 96, and 120 hours for the determination of RU-486 concentrations in order to calculate Cmax, Tmax, AUC0-120, AUC0-∞, and T1/2 pharmacokinetics parameters.
Experiment 5: Analysis of Pharmacokinetics Samples
RU-486 blood concentration determinations: The analysis used calibrated HPLC. Calibration was performed for a concentration range from 5 to 5000 ng/ml. The internal standard for the analysis was metoclopramide, at 20 ng/ml, 400 ng/ml, and 4000 ng/ml as quality control. The lowest detectable concentration (LOQ) is 5 ng/ml.
Plasma sample preparation: Plasma (0.2 ml) was placed in a test tube, to which metoclopramide (25 μL; 7.5 ng/μL) was added as internal standard, followed by 50 μL of 0.2 M K2HPO4. The mixture was mixed by shaking for 30 seconds. Then, 3 ml of tert-butyl methyl ether was added as the extraction reagent. The mixture was mixed by shaking for 60 seconds before centrifuged at 3,000 rpm for 5 minutes. The upper clear solution was removed and placed into another test tube. This clear solution was dry with a stream of N2. To the dried residue, 200 μL of mobile phase was added. The tube was shaken for 60 seconds. Each injection used 30 μL of sample.

pregnancy [2] = conditions: RU-486 at 50 mg or 10 mg; cited from earlier work
pregnancy [3] = conditions: cited from earlier work

For CC#C[C@]1(O)CC[C@H]2[C@@H]3CCC4=CC(=O)CCC4=C3[C@@H](c3ccc(N(C)C)cc3)C[C@@]21C [Mifepristone, 17β-hydroxy-11β-(4-dimethylaminophenyl)-17α-(1-propynyl)-estra-4,9-dien-3-one], the “prolongation of the follicular phase” value (menstrual cycle) is listed as 10 to 15 days, the Tmax [1] is listed as 54.6 ± 11.4 min and the AUC(0-t) ([1]; read-out: AUC0-120 of RU-486) is listed as 8720 ± 1470 ng·h/mL. The AUC(0-inf) ([1]; read-out: AUC0-∞ of RU-486) was 9420 ± 1550 ng·h/mL, the half-life ([1]; read-out: T1/2 of RU-486 (converted)) was 2110 ± 172 min and the “morning after pregnancy prevention effect” value (pregnancy [2]) was “same effect as 500 mg”. For the same molecule, the result with abortion (pregnancy [3]; 200 mg or 150 mg of RU-486) was “good results with abortion” and the “success rate of early termination of pregnancy” value (pregnancy [3]; 600 mg RU-486 and 400 mg misprostol, within the first 49 days of pregnancy) was 97%.

Reference: patent US20050220715A1, “Methods and compositions for improving drug safety” (Lotus Pharmaceutical Co., Ltd., priority 2004, published 2005)
